According to patent US20240164376A1, “SYNERGISTIC PLANT GROWTH STIMULANT COMPOSITIONS OF POTASSIUM MONO/DI-FORMATE WITH NITROGENOUS COMPOUNDS” (FERTIS INDIA PVT LTD, priority 2021, published 2024):

Test system: paddy grains
Assay: Protein content in the paddy grains
Format: in vivo

| Structure (SMILES) | % Of Protein |
| --- | --- |
| O=C[O-].[K+] [Potassium formate] | 0.0091% |
| O=C(Nc1ccccc1)Nc1ccccc1 [Diphenyl urea] | 0.0089% |
| NC(N)=O [Urea] | 0.0063% |
| O=CO.O=C[O-].[K+] [Potassium diformate] | 0.0093% |
| CNC(=O)NC [Dimethyl urea] | 0.0081% |
| NC(=O)N(C=O)C=O [N,Ndiformyl urea (NN-DFU), N,Ndiformyl urea] | 0.0112% |
